ChEMBL document CHEMBL1134503, “Synthesis, antifolate, and antitumor activities of classical and nonclassical 2-amino-4-oxo-5-substituted-pyrrolo[2,3-d]pyrimidines” (J Med Chem, 2001)

Key:
Thymidylate synthase [1] = target: Thymidylate synthase (Homo sapiens, UniProt P04818); assay: Inhibitory activity against human thymidylate synthase
Dihydrofolate reductase [2] = target: T1, Dihydrofolate reductase (Rattus norvegicus, UniProt Q920D2); assay: Inhibition of rat liver dihydrofolate reductase
T1 sequence (Q920D2 whole entry): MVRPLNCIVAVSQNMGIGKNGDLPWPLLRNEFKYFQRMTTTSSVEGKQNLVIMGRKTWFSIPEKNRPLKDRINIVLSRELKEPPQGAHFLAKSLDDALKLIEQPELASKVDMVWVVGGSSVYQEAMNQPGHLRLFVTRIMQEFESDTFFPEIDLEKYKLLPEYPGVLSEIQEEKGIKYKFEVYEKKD

Dihydrofolate reductase [3] = target: T2, Dihydrofolate reductase (Pneumocystis carinii, UniProt P16184); assay: Inhibitory activity against Pneumocystis carinii dihydrofolate reductase
T2 sequence (P16184 whole entry): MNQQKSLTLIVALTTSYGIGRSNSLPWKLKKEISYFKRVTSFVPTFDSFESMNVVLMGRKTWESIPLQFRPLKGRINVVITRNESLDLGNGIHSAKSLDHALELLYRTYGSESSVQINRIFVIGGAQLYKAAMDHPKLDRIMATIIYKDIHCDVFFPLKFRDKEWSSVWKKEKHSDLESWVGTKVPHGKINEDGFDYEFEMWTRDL

[4] = target: T3, Bifunctional dihydrofolate reductase-thymidylate synthase (Toxoplasma gondii, UniProt Q07422); assay: Inhibitory activity against Toxoplasma gondii dihydrofolate reductase
T3 sequence (Q07422 whole entry): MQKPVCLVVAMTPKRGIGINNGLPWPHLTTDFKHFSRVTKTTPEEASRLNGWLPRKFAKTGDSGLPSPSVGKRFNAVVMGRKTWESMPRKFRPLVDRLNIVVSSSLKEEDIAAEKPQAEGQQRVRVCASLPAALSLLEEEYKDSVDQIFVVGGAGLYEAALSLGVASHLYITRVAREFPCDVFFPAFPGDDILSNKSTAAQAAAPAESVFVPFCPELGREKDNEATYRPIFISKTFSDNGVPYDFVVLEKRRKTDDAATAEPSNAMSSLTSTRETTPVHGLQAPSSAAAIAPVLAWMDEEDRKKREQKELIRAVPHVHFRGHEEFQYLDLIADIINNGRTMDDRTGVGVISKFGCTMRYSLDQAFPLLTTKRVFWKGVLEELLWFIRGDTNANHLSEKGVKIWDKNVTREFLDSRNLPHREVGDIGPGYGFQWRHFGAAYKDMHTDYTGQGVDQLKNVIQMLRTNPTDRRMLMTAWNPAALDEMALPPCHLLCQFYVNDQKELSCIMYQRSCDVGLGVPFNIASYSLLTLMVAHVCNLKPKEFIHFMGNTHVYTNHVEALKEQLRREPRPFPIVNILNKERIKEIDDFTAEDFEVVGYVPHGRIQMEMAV

[5] = target: Dihydrofolate reductase; T. gondii vs rat (Toxoplasma gondii) (UniProt Q920D2+Q07422); assay: Ratio of binding to rat liver and Toxoplasma gondii dihydrofolate reductase
CCRF-CEM [6] = assay: Growth inhibition of DHFR-overexpressing cells, defined mechanisms of MTX resistance during continuous (0-120 h) exposure; assay type: functional, cell-based; conditions: Homo sapiens
CCRF-CEM [7] = assay: Growth inhibition of CCRF-CEM cells resistant to MTX; assay type: functional, cell-based; conditions: Homo sapiens
CCRF-CEM [8] = assay: Growth inhibition of parental CCRF-CEM cells.; assay type: functional, cell-based; conditions: Homo sapiens
A253 cell line = assay: Growth inhibition of A253 cell lines.; assay type: functional, cell-based; conditions: Homo sapiens
CCRF-CEM [9] = assay: Growth inhibition of […], defined mechanisms of MTX resistance during continuous (0-120 h) exposure; assay type: functional, cell-based; conditions: Homo sapiens
FaDu [10] = assay: Growth inhibition of FaDu human head and neck squamous cell carcinoma cell lines.; assay type: functional, cell-based
FaDu [11] = assay: Relative growth inhibition of FaDu cells at 9 uM drug concentration and in presence of thymidine and hypoxanthine.; assay type: functional, Homo sapiens
FaDu [12] = assay: Relative growth inhibition of FaDu cells at 9 uM drug concentration and in presence of 40 uM Thymidine.; assay type: functional, Homo sapiens
FaDu [13] = assay: Relative growth inhibition of FaDu cells at 9 uM drug concentration and in presence of 50 uM Hypoxanthine.; assay type: functional, Homo sapiens
FaDu [14] = assay: Relative growth inhibition of FaDu cells at 9 uM drug concentration and in presence of 10 uM Leucovorin.; assay type: functional, Homo sapiens
FaDu [15] = assay: Relative growth inhibition of FaDu cells in absence of metabolite at 9 uM concentration.; assay type: functional, Homo sapiens
Thymidylate synthase [16] = target: Thymidylate synthase (Escherichia coli, UniProt C3SWJ7); assay: Inhibitory activity against Escherichia coli thymidylate synthase
Thymidylate synthase (Escherichia coli, UniProt C3SWJ7), sequence (C3SWJ7 whole entry): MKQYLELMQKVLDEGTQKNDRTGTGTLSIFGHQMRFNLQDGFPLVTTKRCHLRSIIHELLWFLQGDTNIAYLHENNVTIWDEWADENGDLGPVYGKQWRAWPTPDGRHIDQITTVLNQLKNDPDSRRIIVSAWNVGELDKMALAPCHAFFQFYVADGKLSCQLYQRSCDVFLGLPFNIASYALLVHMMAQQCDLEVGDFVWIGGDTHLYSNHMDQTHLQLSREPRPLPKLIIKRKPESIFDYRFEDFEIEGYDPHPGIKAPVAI

Dihydrofolate reductase [17] = target: T4, Dihydrofolate reductase (Homo sapiens, UniProt P00374)
T4 sequence (P00374 whole entry): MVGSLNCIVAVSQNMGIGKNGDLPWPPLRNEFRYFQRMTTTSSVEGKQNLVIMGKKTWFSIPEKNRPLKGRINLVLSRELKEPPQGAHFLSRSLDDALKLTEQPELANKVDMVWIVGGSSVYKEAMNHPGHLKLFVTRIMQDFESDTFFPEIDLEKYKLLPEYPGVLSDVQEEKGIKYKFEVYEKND
Description: Inhibitory activity against human dihydrofolate reductase

Thymidylate synthase (Homo sapiens, UniProt P04818), sequence (P04818 whole entry): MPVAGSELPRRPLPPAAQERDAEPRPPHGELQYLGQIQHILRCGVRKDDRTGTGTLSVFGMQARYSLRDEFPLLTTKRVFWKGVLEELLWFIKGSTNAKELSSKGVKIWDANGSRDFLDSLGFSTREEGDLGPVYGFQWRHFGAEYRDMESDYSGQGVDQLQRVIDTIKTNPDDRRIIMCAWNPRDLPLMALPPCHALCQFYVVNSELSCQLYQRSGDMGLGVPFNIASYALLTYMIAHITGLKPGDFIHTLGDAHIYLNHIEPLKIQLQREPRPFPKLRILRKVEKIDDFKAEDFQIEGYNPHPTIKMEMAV

| SMILES | IC50 (Dihydrofolate reductase [2]) [µM] | IC50 (Dihydrofolate reductase [3]) [µM] | IC50 [4] [µM] | Ratio [5] | also measured |
| --- | --- | --- | --- | --- | --- |
| Nc1nc2[nH]cc(CCc3ccc(C(=O)N[C@@H](CCC(=O)O)C(=O)O)cc3)c2c(=O)[nH]1 [PEMETREXED] | – | – | – | – | IC50 (Thymidylate synthase [1]): 5.7 µM |
| Nc1nc(O)c2c(CNc3cc(Cl)ccc3Cl)c[nH]c2n1 | 25 | > 25 | 0.66 | > 38 | – |
| COc1cc(NCc2c[nH]c3nc(N)nc(O)c23)cc(OC)c1 | – | – | – | > 8 | – |
| COc1cc(NCc2c[nH]c3nc(N)nc(O)c23)cc(OC)c1OC | 22 | > 22 | 9.3 | > 2.4 | – |
| COc1ccc(OC)c(NCc2c[nH]c3nc(N)nc(O)c23)c1 | 47 | > 47 | – | > 21 | EC50 (CCRF-CEM [6]): 0.42 µM; EC50 (CCRF-CEM [7]): 0.46 µM; EC50 (CCRF-CEM [8]): 0.23 µM; EC50 (A253 cell line): > 10 µM; EC50 (CCRF-CEM [9]): 1.53 µM; EC50 (FaDu [10]): > 10 µM |
| Nc1nc(O)c2c(CNc3cccc(Cl)c3)c[nH]c2n1 | – | – | – | > 7 | – |
| COc1ccc(OC)c(N(C)Cc2c[nH]c3nc(N)[nH]c(=O)c23)c1 | 56 | > 56 | 10.3 | – | – |
| CN(Cc1cnc2nc(N)nc(N)c2n1)c1ccc(C(=O)N[C@@H](CCC(=O)O)C(=O)O)cc1 [METHOTREXATE] | – | – | – | – | EC50 (A253 cell line): 0.019 µM |
| COc1cc(OC)cc(N(C)Cc2c[nH]c3nc(N)nc(O)c23)c1 | 87 | > 87 | 4.2 | > 21 | – |
| COc1cc(N(C)Cc2c[nH]c3nc(N)[nH]c(=O)c23)cc(OC)c1OC | 45 | > 45 | 37 | – | – |
| COc1ccc(NCc2c[nH]c3nc(N)nc(O)c23)c(OC)c1 | 16 | > 16 | – | > 2.3 | – |
| Nc1nc(O)c2c(CNc3ccc(C(=O)N[C@@H](CCC(=O)O)C(=O)O)cc3)c[nH]c2n1 | – | – | 0.8 | – | Relative growth (FaDu [11]): 79; Relative growth (FaDu [12]): 74; EC50 (CCRF-CEM [6]): 0.2 µM; EC50 (CCRF-CEM [7]): 0.12 µM; EC50 (CCRF-CEM [8]): 0.08 µM; Relative growth (FaDu [13]): 5; EC50 (A253 cell line): 1 µM; EC50 (CCRF-CEM [9]): 0.31 µM; Relative growth (FaDu [14]): 64; Relative growth (FaDu [15]): 5; EC50 (FaDu [10]): 0.8 µM; IC50 (Thymidylate synthase [16]): > 120 µM; IC50 (Thymidylate synthase [1]): 46 µM; IC50 (Dihydrofolate reductase [17]): 10 µM |
| COc1cc(N(C)Cc2c[nH]c3nc(N)nc(O)c23)cc(OC)c1OC | – | – | – | > 2 | – |
| Nc1nc(O)c2c(CNc3ccc(Cl)cc3Cl)c[nH]c2n1 | – | – | – | > 7 | – |
| COc1ccc(OC)c(N(C)Cc2c[nH]c3nc(N)nc(O)c23)c1 | – | – | – | > 6 | – |
| Nc1nc2[nH]cc(CNc3cccc(Cl)c3)c2c(=O)[nH]1 | 26 | > 26 | – | – | – |
| Nc1nc2[nH]cc(CNc3ccc(Cl)cc3Cl)c2c(=O)[nH]1 | 15 | > 15 | – | – | – |
| Nc1nc2[nH]cc(CNc3cc(Cl)cc(Cl)c3)c2c(=O)[nH]1 | 63 | – | 4.1 | – | – |
| COc1cc(NCc2c[nH]c3nc(N)[nH]c(=O)c23)cc(OC)c1 | 20 | > 20 | – | – | – |
| Nc1nc(O)c2c(CNc3cc(Cl)cc(Cl)c3)c[nH]c2n1 | – | – | – | > 15.4 | – |
